Experimental data from patent US20240245634A1, “PCNA INHIBITORS AND EGFR INHIBITORS FOR CANCER TREATMENT” (City of Hope, priority 2021, published 2024).
“Also recorded” adds a separate entry of the source.

Assays:
PCNA = target: T1, PCNA (Homo sapiens, UniProt P12004); assay: Immunofluorescence imaging of PCNA in MDA-MB-468 cells; format: cell-based; conditions: MDA-MB-468, serum starved, 30 minutes drug, then 15 minutes EGF
T1 construct: endogenous in cells; host or cells: MDA-MB-468
Experimental: (§1) Serum starved cells were treated for 30 minutes with DMSO, AOH1996, Osi, or AOH1996 and Osi followed by 15 minutes of EGF stimulation.

CRC cell lines = assay: IC50 on colorectal cancer cell lines of the NCI60 panel; format: cell-based; conditions: IC50 determined by the NCI Developmental Therapeutics Program
Experimental: FIGS. 7A-7B show EGFR targeted antibodies used in the treatment of colorectal cancer (CRC). […] CRC with KRAS and BRAF activating mutations are often difficult to treat but cell lines with mutant KRAS and BRAF are responsive to AOH1996. FIG. 7A: IC50 of CRC cell lines relative to the rest of the NCI60 cell lines. FIG. 7B: AOH1996 IC50 on CRC cell lines classified by presence and type of Ras-Raf-Mek-Erk pathway mutation. IC50s for the NCI60 cell lines was determined by the NCI Developmental Therapeutics Program. Mutation status of CRC cell lines was found in the Cellosaurus database.

EGFR = target: T2, EGFR (Homo sapiens, UniProt P00533); assay: Immunofluorescence imaging of EGFR in MDA-MB-468 cells; format: cell-based; conditions: MDA-MB-468, serum starved, 30 minutes drug, then 15 minutes EGF
T2 construct: endogenous in cells; host or cells: MDA-MB-468
Experimental: as §1

[1] = test system: cell lines (14837, 14838) engineered to express oncogenic KRAS; assay: Dose response assay on cell lines with doxycycline-inducible mutant KRAS; format: cell-based; conditions: with doxycycline (KRAS expressed) versus without
Experimental: Some of those alterations are present in the NCI60 cell line and represented in the chart. Each circle represent cell lines with the resistance conferring genomic alteration listed on the x-axis. […] FIG. 5F: two cell lines (14837, 14838) engineered to express oncogenic KRAS in the presence of doxycycline (Dox) were treated with escalating doses of AOH1996 in a dose response assay.
(§2) Studies that explored acquisition of resistance to Osi have identified many genomic alterations that contribute to resistance. These alterations are present in some of the cell lines in the NCI60 cell line panel. The growth inhibitory effects of AOH1996 on the NCI60 panel has been measured through services offered by the NCI's Development Therapeutics Program.

tumors = assay: In vivo tumor suppression and tolerability
NCI60 cell line panel = assay: Growth inhibition on the NCI60 cell line panel (NCI Developmental Therapeutics Program); format: cell-based
Source text: as §2

T1 sequence (P12004 whole entry): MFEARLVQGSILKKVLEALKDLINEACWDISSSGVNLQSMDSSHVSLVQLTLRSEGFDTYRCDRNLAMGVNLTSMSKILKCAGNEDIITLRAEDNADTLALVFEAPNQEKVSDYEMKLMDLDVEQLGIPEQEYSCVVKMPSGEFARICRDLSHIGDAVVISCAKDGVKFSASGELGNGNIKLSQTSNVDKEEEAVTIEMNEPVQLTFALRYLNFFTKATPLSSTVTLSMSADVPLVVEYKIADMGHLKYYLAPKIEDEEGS
T2 sequence (P00533 25-1210): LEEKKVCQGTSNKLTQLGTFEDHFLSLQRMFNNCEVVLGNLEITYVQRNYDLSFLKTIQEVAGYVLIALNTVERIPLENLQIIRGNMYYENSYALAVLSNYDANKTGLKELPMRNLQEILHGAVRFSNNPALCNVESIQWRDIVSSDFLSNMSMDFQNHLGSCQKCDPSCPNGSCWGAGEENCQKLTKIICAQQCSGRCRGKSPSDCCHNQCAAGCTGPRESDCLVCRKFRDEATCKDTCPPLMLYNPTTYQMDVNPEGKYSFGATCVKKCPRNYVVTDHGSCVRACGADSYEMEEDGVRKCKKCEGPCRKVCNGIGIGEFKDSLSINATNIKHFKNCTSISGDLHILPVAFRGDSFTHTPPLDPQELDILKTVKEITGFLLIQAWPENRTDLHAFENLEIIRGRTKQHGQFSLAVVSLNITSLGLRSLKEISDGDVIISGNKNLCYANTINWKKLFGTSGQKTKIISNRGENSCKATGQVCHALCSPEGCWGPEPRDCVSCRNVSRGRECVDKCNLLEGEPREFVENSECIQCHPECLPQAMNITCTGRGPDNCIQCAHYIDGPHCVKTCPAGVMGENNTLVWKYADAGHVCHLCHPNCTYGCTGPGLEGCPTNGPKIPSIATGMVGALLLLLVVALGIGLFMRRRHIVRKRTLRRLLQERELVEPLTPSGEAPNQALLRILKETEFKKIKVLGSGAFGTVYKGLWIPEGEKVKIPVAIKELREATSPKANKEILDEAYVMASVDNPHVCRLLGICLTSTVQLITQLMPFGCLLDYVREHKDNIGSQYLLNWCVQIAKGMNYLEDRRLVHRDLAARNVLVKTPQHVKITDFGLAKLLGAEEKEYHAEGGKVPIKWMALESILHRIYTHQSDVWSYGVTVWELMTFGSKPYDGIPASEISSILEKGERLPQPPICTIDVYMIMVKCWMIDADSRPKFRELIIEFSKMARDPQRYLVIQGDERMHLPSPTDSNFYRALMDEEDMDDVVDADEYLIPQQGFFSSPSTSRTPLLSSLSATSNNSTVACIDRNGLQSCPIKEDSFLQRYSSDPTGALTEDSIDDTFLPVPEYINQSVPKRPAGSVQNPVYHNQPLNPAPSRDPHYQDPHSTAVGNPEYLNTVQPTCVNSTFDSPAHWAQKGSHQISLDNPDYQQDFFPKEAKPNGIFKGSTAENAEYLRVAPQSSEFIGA

SMILES	PCNA localization (PCNA)	response of CRC cell lines with mutant KRAS and BRAF (CRC cell lines)	sensitivity of CRC cell lines relative to the rest of the NCI60 cell lines (CRC cell lines)	EGFR localization and signal (EGFR)	sensitivity with mutant KRAS expressed versus expression suppressed [1]	dose with no discernable side effects (tumors)	route of administration (tumors)	effect on tumors in vivo (tumors; oral)	effect of genomic alterations conferring resistance to osimertinib on sensitivity to AOH1996 (NCI60 cell line panel; NCI60 cell lines carrying the alterations)	sensitivity of BRAF and KRAS mutant cell lines to AOH1996 (NCI60 cell line panel; NCI60 cell lines with BRAF V600E and activating KRAS mutations)
C=CC(=O)Nc1cc(Nc2nccc(-c3cn(C)c4ccccc34)n2)c(OC)cc1N(C)CCN(C)C [osimertinib, reference compound]	less apparent									
COc1cccc(Oc2ccccc2NC(=O)CNC(=O)c2cccc3ccccc23)c1 [AOH1996]	lost punctate staining of PCNA in the nucleus; also recorded: Nuclear PCNA foci were absent	responsive	particularly sensitive	accumulated EGFR at the cell membrane; also recorded: EGFR was localized to the cell membrane	sensitive to AOH1996 when mutant KRAS is expressed but not when expression was suppressed; also recorded: more sensitive	more than 6 times its effective dose	orally administrable	effectively kills and suppresses tumors	did not confer resistance	noticeable skew in distribution towards AOH1996 sensitivity; also recorded: greater sensitivity
